From patent publication US11214835B1, “Methods and compositions for diagnosis and management of neurodegerative diseases” (UNIVERSITY OF SOUTH FLORIDA, priority 2017, dated 2022) come the findings set out here.

The subject of the assay is GAS5 lncRNA. As to the kind of experiment: γ-AApeptide OBOC combinatorial library screen with fluorescein tagged GAS5 oligonucleotide, hits validated in vitro. It counts as binding. The conditions noted are these: fluorescein tagged GAS5 oligonucleotide probe, tRNA as control. An excerpt: The interaction between UPF1 and GAS5 was disrupted using a γ-AApeptide based one-bead-one-compound (OBOC) combinatorial library (Wu H, Li Y, Bai G, Niu Y, Qiao Q, Tipton J D, Cao C, Cai J. gamma-AApeptide-based small-molecule ligands that inhibit Abeta aggregation. Chemical communications. 2014; 50(40):5206-8. doi: 10.1039/c3cc46685j. PubMed PMID: 24158240). The γ-AApeptide is a peptidomimetic with side chains for chemical diversity and are resistant to proteolytic cleavage. To screen the compound library, a probe that contained a fluorescein tagged oligonucleotide was synthesized. The probe spanned 30 nucleotides on either side of the UAA sequences on GAS5 (FIG. 13) The fluorescein was attached to the 5′end (beginning of oligonucleotide probe sequence). The nucleotide sequence within the GAS5 IncRNA that the oligonucleotide probe binds to can be about 100% identical to […] (SEQ ID NO: 4), which is nucleotides 541 to 651 of SEQ ID NO: 1. The underlined regions indicate the UAA that is the target regions. As such, the oligonucleotide probe was designed to flank both sides of these target regions.
The length of oligonucleotide was required to maintain stem loop structure to specifically bind to GAS5. Further, we modeled the oligonucleotide (RNAfold software) to evaluate its folding and verified absence of any unwanted secondary structures. The backbone was modified by 2′-MOE (2′-O-methoxyethylribose), which protects it from degradation and a fluoroscein tag was attached to the 5′end to aid in screening. The oligonucleotide probe was used to screen 160,000 molecules in the combinatorial library using tRNA as control (as tRNA has similar stem loop secondary structures). […] The compound having a structure according to Formula 3 was determined to have a chemical formula of C68H92N10O9S, a mass of about 1224.6769, and a molecular weight of 1225.6050. The compound having a structure according to Formula 14 was determined to have a chemical formula of C63H85N9O13S, a mass of about 1207.5988, and a molecular weight of 1208.4830. […]

Regarding `CC(C)C[C@H]1CN(C(=O)CC2CC2)CC(=O)N[C@@H](CCCCN)CN(C(=O)CCc2ccccc2)CC(=O)N[C@@H](Cc2ccccc2)CN(CC(N)=O)C(=O)CCSCc2ccc(cc2)C(=O)N[C@@H](Cc2ccccc2)CN(C(=O)CC2CC2)CC(=O)N1` [Formula G5-1397], the “ability to bind GAS5 (identified and validated from library screen)” value is recorded as “able to bind GAS5”.
For `NCCCC[C@H]1CN(C(=O)CCc2ccccc2)CC(=O)N[C@@H](CCC(=O)O)CN(CC(N)=O)C(=O)CCSCc2ccc(cc2)C(=O)N[C@@H](CCC(=O)O)CN(C(=O)CCC(=O)O)CC(=O)N[C@@H](CCCCN)CN(C(=O)CCCN)CC(=O)N1` [NPG567], the “ability to bind GAS5 (identified and validated from library screen)” value is listed as “can bind GAS5”.
